Measurements from patent US10952992B2, “Methods of treating intraocular pressure with activators of Tie-2” (Aerpio Pharmaceuticals, Inc., priority 2015, dated 2021).

Test: Example 2 iris, retina, choroid and cornea tissue concentrations
Assay type: in vivo, male New Zealand White rabbits
Protocol: To measure the concentration of Compound 1 in plasma and ocular tissues following topical ocular, subcutaneous, and intravitreal administration, New Zealand White rabbits were administered Compound 1, and plasma and ocular samples were collected at pre-determined time points. Compound 1 formulations were prepared fresh on each day of dosing.
Ocular tissue samples from both eyes of each animal were collected and weights were recorded. Plasma and ocular tissue sample concentrations of Compound 1 were determined by LC-MS/MS.
Animals were anesthetized for ocular (topical) and intravitreal dosing following the 12IA7 IACUC protocol. Each rabbit received a bolus dose of test formulation either via topical ocular administration 3 times daily on Days 1 and 2 (at 0, 6, and 12 hours), and once on Day 3 (at 0 hours) into both eyes; via intravitreal administration into both eyes once on Day 1 (at 0 hours); or via subcutaneous administration 2 times daily on Days 1 and 2 (at 0 and 8 hours) and once daily on Day 3 (at 0 hours). Doses were given within an approximately 1 hour window each day where applicable.
On Day 1, for intravitreal administration, or on Day 3, for topical ocular and subcutaneous administration, at the appropriate ocular tissue collection time points, animals were euthanized and both eyes were enucleated immediately. Following enucleation, each eye was rinsed with phosphate-buffered saline. Ocular tissue samples from both eyes of each animal were collected at predetermined time points and weights were recorded. All the samples were frozen immediately on dry ice, and stored at −60° C. to −80° C. pending bioanalysis.
An LC-MS/MS method was developed for the determination of Compound 1 in rabbit aqueous tissues (plasma, aqueous and vitreous humor) and solid ocular tissue samples. A pre-study standard curve was analyzed to determine the specificity, range, and lower limit of quantitation of the method. Plasma and tissue homogenate study samples were extracted and analyzed. All the samples were treated identically to the standards.
One eight-point standard curve was used in each analytical batch. To be accepted, each batch must have had at least five of eight standards with accuracy within ±20% of nominal, except at the lower limit of quantification (LLOQ), where ±25% was acceptable.

SMILES: COC(=O)N[C@@H](Cc1ccccc1)C(=O)N[C@@H](Cc1ccc(NS(=O)(=O)O)cc1)c1csc(-c2cccs2)n1 [Compound 1]
- iris, retina, choroid, cornea concentrations, intravitreal relative to subcutaneous or ocular topical (both test formulations): higher concentrations
- persistence of concentrations in all ocular tissues (intravitreal administration of both test formulations): persisted at 72 hours
